Like-named read-outs stand apart in the source and are kept apart here.
Tests used:
[1] = test system: aconitine-induced arrhythmias; experiment: Aconitine test (antiarrhythmic); format: in vivo, rat; conditions: for ED50: Rattus norvegicus, read-out: ED50, Aconitine, rat
Text: (§1) These compounds were first selected owing to their activity in different experimental arrhythmia models which are used as screening techniques. So the chloroform, aconitine and calcium chloride tests have been used for testing the compounds of the invention as described by J. W. Lawson, J.Pharmacol.exp.Ther. 160, 22-81 (1968) "Antiarrhythmic activity of some isoquinoline derivatives determined by a rapid screening procedure in the mouse".
It seems that investigators favour the rat so as to study the protective effect of a compound on arrhythmia induced by aconitine (see: J. L. Junien et al., Arzneim.Forsch. 24, 1743-1747 (1974); L. Szekeres et al., Experimental cardiac arrhythmias and antiarrhythmic drugs, Publishing House of the Hungarian Academy of Sciences (Akademia Kiado), Budapest (1971); M. R. Malinow et al., Arch.int.Pharmacodyn. 102, 55-64 (1955); C. Bianchi et al., Arzneim. Forsch. 18, 845-850 (1968); B. B. Vargaftig et al., J. Pharm. Pharmacol. 27, 697-699 (1975); and M. Fekete et al., Med Exp. 10, 93-102 (1964)).
Test compounds are administered to the urethane-anaesthetized rat prior to the injection of aconitine. Various antiarrhythmic drugs are capable of delaying the onset of aconitine-induced arrhythmias and this model of arrhythmia seems to be suitable for assaying the antiarrhythmic acitivity.

[2] = test system: ventricular fibrillation induced by chloroform; experiment: Chloroform test (antiarrhythmic); format: in vivo; conditions: iv, read-out: ED50, Chloroform, mouse (dose which protects 50% of the mice against ventricular fibrillation induced by chloroform)
Experimental: Five minutes after i.v. injection of the compound under study the mice are placed into a 300 ml beaker containing cotton wool soaked with 20 ml of chloroform. The animals are watched carefully and taken out of the beaker as soon as the second respiratory arrest occured. The heart is then quickly exposed to visual inspection of ventricular rhythm (see Lawson, Loc.cit.).

[3] = test system: calcium chloride-induced arrhythmias; experiment: Calcium chloride test (antiarrhythmic); format: in vivo, rat; conditions: for ED50: iv, read-out: ED50, Calcium chloride, rat
Text: as §1
Cardiac arrhythmia frequently occurs when the levels of serum ions are abnormal, particularly when the calcium level is four times higher than the normal concentration. This is the reason why intravenous administraction of high doses of calcium chloride can elicit the development of dysrhythmias in animals.
In the anaesthetized rat the rapid intravenous injection of calcium chloride causes lethal ventricular fibrillation or ventricular extrasystoles. The evaluation of the activity of the test compound aministered prior to the calcium chloride injection is based on the onset of arrhythmia (M. R. Malinow et al., Arch.int. Pharmacodyn. 102, 55-64 (1955), "The pharmacology of experimental ventricular arrhythmias in the rat I. Antihistamic drugs") or return to sinus rhythm after occasional trouble of rhythm (M. Fekete et al., Med. Exp. 10, 93-102 (1964), "On the antiarrhythmic effect of some thymoleptics: amitriptyline, imipramine, trimepropimine and desmethylimipramine").

Row | SMILES | ED50 [1] [mg/kg] | ranking in the aconitine test ([1]; rat, compared by ED50) | ED50 ([2]; Mus musculus) [mg/kg] | ED50 ([3]; Rattus norvegicus) [mg/kg] | protection against arrhythmias induced by calcium chloride ([3]; rat) | ED50 ([2]; mouse, i.v., 5 minutes before chloroform) [mg/kg] | ED50 ([3]; anaesthetized rat, compound given prior to i.v. calcium chloride) [mg/kg]
1 | CCCNCC(O)COc1c(C)csc1C(=O)CCc1ccccc1.OCl (centres unmarked) [LG 80-6-01, 1-[4-methyl-3-(2-hydroxy-3-n-propylaminopropoxy)-2-thienyl]-3-phenyl-1-propanone-chlorohydrate] | 1.49 | best compound in this method | 3.57 | 2.59 | best protection against arrhythmias induced by calcium chloride | – | –
2 | CCCCNCC(O)COc1ccsc1C(=O)CCc1ccccc1.OCl (centres unmarked) [LG 80-6-00, 1-[3-(2-hydroxy-3-n-butylaminopropoxy)-2-thienyl]-3-phenyl-1-propanone-chlorohydrate] | 4.23 | – | 4.16 | 5.04 | – | – | –
3 | CCCNCC(O)COc1cc(C)sc1C(=O)CCc1ccccc1.OCl (centres unmarked) [LG 80-6-02, 1-[5-methyl-3-(2-hydroxy-3-n-propylaminopropoxy)-2-thienyl]-3-phenyl-1-propanone-chlorohydrate] | 22.8 | – | 17.6 | 2.87 | – | – | –
4 | CCCNCC(O)COc1ccccc1C(=O)CCc1ccccc1 (centres unmarked) [Propafenon, Propafenone, reference compound] | 2.1 | – | – | – | – | 3.45 | 4.49
